Data published in patent US20170319572A1, “COMBINATION DRUG TREATMENT FOR HEPATITIS C INFECTION” (JANSSEN PHARMACEUTICALS, INC., priority 2015, published 2017).
Entries after “also recorded” stand apart in the source; their conditions may differ.

Key:
BCRP = molecular target: T1, BCRP (Homo sapiens, UniProt Q9UNQ0); conditions: cited from earlier work
T1 sequence (Q9UNQ0 1-655): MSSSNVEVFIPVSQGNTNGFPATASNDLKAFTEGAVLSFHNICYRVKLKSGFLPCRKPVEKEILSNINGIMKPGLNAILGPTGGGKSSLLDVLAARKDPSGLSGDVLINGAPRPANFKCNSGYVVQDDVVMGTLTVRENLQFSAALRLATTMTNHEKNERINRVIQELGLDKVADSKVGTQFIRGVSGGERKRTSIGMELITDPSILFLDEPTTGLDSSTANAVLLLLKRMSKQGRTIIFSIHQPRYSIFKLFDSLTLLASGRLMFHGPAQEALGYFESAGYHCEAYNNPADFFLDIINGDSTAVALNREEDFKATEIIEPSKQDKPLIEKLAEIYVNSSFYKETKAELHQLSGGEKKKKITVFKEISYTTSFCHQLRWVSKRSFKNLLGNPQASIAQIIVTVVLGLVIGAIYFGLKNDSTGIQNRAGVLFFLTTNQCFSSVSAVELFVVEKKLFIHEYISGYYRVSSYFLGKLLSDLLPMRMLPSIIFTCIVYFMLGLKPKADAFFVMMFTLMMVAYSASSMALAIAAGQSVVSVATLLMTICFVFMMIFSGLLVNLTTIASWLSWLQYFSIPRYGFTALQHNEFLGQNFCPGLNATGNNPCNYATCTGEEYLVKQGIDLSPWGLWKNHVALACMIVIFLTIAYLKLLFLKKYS

CYP (any CYP) = assay: CYP inhibition; conditions: on any CYP
OATP1B3 = molecular target: T2, OATP1B3 (Homo sapiens, UniProt Q9NPD5); conditions: cited from earlier work
T2 sequence (Q9NPD5 1-702): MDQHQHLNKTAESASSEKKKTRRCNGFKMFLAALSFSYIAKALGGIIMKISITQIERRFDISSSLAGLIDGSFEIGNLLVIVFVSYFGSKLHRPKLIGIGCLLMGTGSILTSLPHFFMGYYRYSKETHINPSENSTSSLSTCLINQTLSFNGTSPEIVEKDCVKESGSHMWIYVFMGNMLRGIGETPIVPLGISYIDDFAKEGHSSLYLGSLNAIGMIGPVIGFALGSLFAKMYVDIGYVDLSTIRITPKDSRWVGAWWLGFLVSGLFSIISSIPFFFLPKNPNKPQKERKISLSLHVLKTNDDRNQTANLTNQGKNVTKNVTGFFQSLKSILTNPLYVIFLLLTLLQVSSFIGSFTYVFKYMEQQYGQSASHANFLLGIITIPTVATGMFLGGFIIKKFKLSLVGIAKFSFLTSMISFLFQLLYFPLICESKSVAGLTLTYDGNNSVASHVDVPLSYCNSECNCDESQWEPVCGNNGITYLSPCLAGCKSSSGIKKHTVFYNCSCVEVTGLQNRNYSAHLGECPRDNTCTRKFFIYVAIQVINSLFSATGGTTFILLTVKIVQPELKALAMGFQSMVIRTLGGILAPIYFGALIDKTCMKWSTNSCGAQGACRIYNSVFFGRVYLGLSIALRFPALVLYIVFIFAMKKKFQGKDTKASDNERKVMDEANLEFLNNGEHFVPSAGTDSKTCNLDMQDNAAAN

OATP1B1 = molecular target: T3, OATP1B1 (Homo sapiens, UniProt Q9Y6L6); conditions: cited from earlier work
T3 sequence (Q9Y6L6 1-691): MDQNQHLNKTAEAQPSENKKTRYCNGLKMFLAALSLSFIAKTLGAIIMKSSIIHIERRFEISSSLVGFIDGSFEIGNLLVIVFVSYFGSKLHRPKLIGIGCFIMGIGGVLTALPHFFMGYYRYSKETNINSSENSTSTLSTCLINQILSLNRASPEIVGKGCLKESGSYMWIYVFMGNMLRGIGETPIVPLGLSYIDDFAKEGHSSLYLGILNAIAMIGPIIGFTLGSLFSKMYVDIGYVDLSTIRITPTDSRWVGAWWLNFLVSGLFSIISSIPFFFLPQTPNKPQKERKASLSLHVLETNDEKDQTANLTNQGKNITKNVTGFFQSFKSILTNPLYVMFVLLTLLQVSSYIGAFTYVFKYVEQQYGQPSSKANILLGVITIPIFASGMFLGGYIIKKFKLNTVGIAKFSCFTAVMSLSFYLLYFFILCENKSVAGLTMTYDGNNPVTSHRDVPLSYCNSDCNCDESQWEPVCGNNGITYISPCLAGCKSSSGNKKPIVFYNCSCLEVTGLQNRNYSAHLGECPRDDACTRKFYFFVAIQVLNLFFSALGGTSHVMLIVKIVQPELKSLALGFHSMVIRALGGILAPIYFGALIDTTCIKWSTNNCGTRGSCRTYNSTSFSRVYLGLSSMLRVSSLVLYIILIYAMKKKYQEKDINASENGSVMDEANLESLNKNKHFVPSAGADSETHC

SMILES: CC(C)OC(=O)[C@H](C)N[P@](=O)(OC[C@@]1(F)O[C@@H](n2ccc(=O)[nH]c2=O)[C@](C)(O)[C@@H]1O)Oc1ccccc1 [Compound (III), isopropyl ((S)-(((2S,3S,4R,5R)-5-(2,4-dioxo-3,4-dihydropyrimidin-1 (2H)-yl)-2-fluoro-3,4-dihydroxy-4-methyltetrahydrofuran-2-yl)methoxy)(phenoxy)phosphoryl)-L-alaninate]
- inhibition of BCRP (BCRP): no in vitro inhibition
- CYP inhibition potential (CYP (any CYP)): limited CYP inhibition potential
- inhibition of OATP1B3 (OATP1B3): no in vitro inhibition
- inhibition of OATP1B1 (OATP1B1): no in vitro inhibition

SMILES: COC(=O)N[C@H](C(=O)N1[C@H](c2nc3cc(-c4cc5ccc4CCc4ccc(c(-c6ccc7[nH]c([C@@H]8C[C@@H]9CCCC[C@@H]9N8C(=O)[C@@H](NC(=O)OC)C(C)C)nc7c6)c4)CC5)ccc3[nH]2)C[C@@H]2CCCC[C@@H]21)C(C)C [ODV, methyl [(2S)-1-[(2S,3aS,7aS)-2-[6-[11-[2-[(2S,3aS,7aS)-1-[(2S)-2-[(methoxycarbonyl)amino]-3-methylbutanoyl]octahydro-1H-indol-2-yl]-1H-benzimidazol-6-yl]tricyclo[8.2.2.2^4,7]hexadeca-1(12),4,6,10,13,15-hexaen-5-yl]-1H-benzimidazol-2-yl]octahydro-1H-indol-1-yl]-3-methyl-1-oxobutan-2-yl]carbamate]
- inhibition of BCRP (BCRP): no inhibition
- CYP inhibition potential (CYP (any CYP)): does not inhibit cytochrome P450 enzymes; also recorded: does not inhibit CYP450 activity
- inhibition of OATP1B3 (OATP1B3): no inhibition
- inhibition of OATP1B1 (OATP1B1): no inhibition
